Assay results from patent US12133921B2, “Capsule filling composition, method of producing capsule formulation with the use of capsule filling composition, and capsule formulation” (SHIN-ETSU CHEMICAL CO., LTD., priority 2019, dated 2024).

Assay: Compressibility index of the active ingredient
Format: physicochemical
Details: 2,000 mg compressed at 0.5 N, remaining weight after three droppings from 1 cm, n=5
Method: The active ingredient weighing 2,000 mg was introduced into a polycarbonate tube (a hollow cylindrical form with an inner diameter of 12.5 mm and a height of 52.0 mm; “polycarbonate spacer (hollow) CPC (CPC-1252); manufactured by Hirosugi Keiki Co., Ltd.) which was left to stand on a stainless steel bat. Next, by using a tension and compression testing machine (“SDT—503 NB”; manufactured by Imada Seisakusho Co., Ltd.), the active ingredient within the polycarbonate tube was compressed by a cylindrical tool having a contact surface of 11.28 mmΦ in diameter to prepare a compressed product (compression condition; speed: 100 mm/min., load: 0.5 N, load maintaining time: 1 sec.). […]
The lifted polycarbonate tube was released from the fingers, and dropped down. After repeating this procedure three times, the remaining weight of the polycarbonate tube containing the compressed product of the active ingredient was measured as a weight after test.
The amount of powder flowing out from the polycarbonate tube was determined by subtracting the weight after test from the weight before test. Furthermore, the remaining weight of the compressed product of the active ingredient was determined by subtracting the amount of powder flowing out from the polycarbonate tube from the weight before test. […]

Cc1cc2nc3c(=O)[nH]c(=O)nc-3n(C[C@H](O)[C@H](O)[C@H](O)CO)c2cc1C [vitamin B2, riboflavin]
compressibility index: 5%
